Tests used:
Assay type in all cases: in vivo
[1] = tested on: Lolium rigidum (LOLRI); assay: Herbicidal post-emergence action, 1280 g/ha (Table B5); conditions: visual assessment after ca. 3 weeks vs untreated controls
Outline: (§1)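 Post-emergence spray, single-leaf stage (2–3 wk after sowing, sandy loam); WP/EC in water + 0.5% additive, 600 L/ha. Greenhouse ~3 wk, then visual rating vs untreated: 0% = as control, 100% = plants dead.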

[2] = tested on: Setaria viridis (SETVI); assay: Herbicidal post-emergence action, 1280 g/ha (Table B8); conditions: visual assessment after ca. 3 weeks vs untreated controls
Description: (§2) Seeds of mono- and dicotyledonous weed plants were sown in plastic pots (double sowings with one species of mono- and one species of dicotyledonous weed plants per pot), in sandy loam, covered with soil and grown under controlled growth conditions. 2 to 3 weeks after sowing, the test plants were sprayed in the single-leaf stage. The compounds according to the invention, formulated in the form of wettable powders (WP) or as emulsifiable concentrates (EC), were sprayed onto the green plant parts as an aqueous suspension or as an emulsion, with the addition of 0.5% of an additive, at an application rate of 600 litres of water per hectare (converted). The test plants were placed in the greenhouse for ca. 3 weeks under optimum growth conditions, and then the effect of the preparations was assessed visually in comparison with untreated controls (herbicidal effect in percent (%): 100% effect=plants have died, 0% effect=as control plants). Tables B1 to B11 below, show the effects of selected compounds of the general formula (I) according to Table 1 on various harmful plants using an application rate corresponding to 1280 g/ha obtained by the experimental procedure mentioned above.

[3] = tested on: Stellaria media (STEME); assay: Herbicidal post-emergence action, 1280 g/ha (Table B9); conditions: visual assessment after ca. 3 weeks vs untreated controls
Outline: as §1

[4] = tested on: Lolium rigidum (LOLRI); assay: Herbicidal pre-emergence action, 1280 g/ha (Table A5); conditions: visual grading after ca. 3 weeks vs untreated controls
Outline: (§3)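 Weed seeds sown in sandy loam pots and covered with soil; compounds formulated as WP or EC applied to the soil surface in water with 0.5% additive at 600 L water/ha. Pots kept in a greenhouse under optimum growth conditions; damage visually graded after ca. 3 weeks versus untreated controls (0% = as control, 100% = plants dead).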

[5] = tested on: Matricaria inodora (MATIN); assay: Herbicidal post-emergence action, 1280 g/ha (Table B6); conditions: visual assessment after ca. 3 weeks vs untreated controls
Outline: as §1

[6] = tested on: Stellaria media (STEME); assay: Herbicidal post-emergence action, 320 g/ha, STEME; conditions: visual grading after ca. 3 weeks
Outline: (§4)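 Weeds were sown in sandy loam pots and sprayed post-emergence at the single-leaf stage, 2 to 3 weeks after sowing, with WP or EC formulations in water plus 0.5% additive at 600 L/ha. Visual % injury versus untreated controls was scored after ca. 3 weeks in the greenhouse.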

[7] = tested on: Amaranthus retroflexus (AMARE); assay: Herbicidal pre-emergence action, 1280 g/ha (Table A11); conditions: visual grading after ca. 3 weeks vs untreated controls
Outline: as §3

[8] = tested on: Amaranthus retroflexus (AMARE); assay: Herbicidal pre-emergence action, 320 g/ha, AMARE; conditions: visual grading after ca. 3 weeks
Description: (§5) Seeds of mono- and dicotyledonous weed plants were sown in plastic pots (double sowings with one species of mono- and one species of dicotyledonous weed plants per pot), in sandy loam, and covered with soil. The compounds according to the invention, formulated in the form of wettable powders (WP) or as emulsifiable concentrates (EC), were applied to the surface of the covering soil as an aqueous suspension or as an emulsion, with the addition of 0.5% of an additive, at an application rate of 600 litres of water per hectare (converted). Following treatment, the pots were placed in a greenhouse and kept under optimum growth conditions for the test plants. The visual grading of the damage to the test plants was carried out after ca. 3 weeks in comparison to untreated controls (herbicidal effect in percent (%): 100% effect=plants have died, 0% effect=as control plants).
Tables C1 to C6 below, show the effects of selected compounds of the general formula (I) according to Table 1 on various harmful plants using an application rate corresponding to 320 g/ha obtained by the experimental procedure mentioned above.

[9] = tested on: Stellaria media (STEME); assay: Herbicidal pre-emergence action, 1280 g/ha (Table A9); conditions: visual grading after ca. 3 weeks vs untreated controls
Outline: as §3

[10] = tested on: Amaranthus retroflexus (AMARE); assay: Herbicidal post-emergence action, 1280 g/ha, AMARE; conditions: visual grading vs untreated controls
Outline: (§6)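 Visual rating ~3 weeks after treatment: 0% equals untreated control, 100% means plants died. Treatment was a 1280 g/ha foliar spray (600 L water/ha, 0.5% additive, WP or EC formulation) applied to single-leaf-stage plants grown 2–3 weeks in sandy loam under controlled conditions.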

[11] = tested on: Abutilon theophrasti (ABUTH); assay: Herbicidal pre-emergence action, 1280 g/ha (Table A1); conditions: visual grading after ca. 3 weeks vs untreated controls
Outline: as §3

[12] = tested on: Stellaria media (STEME); assay: Herbicidal pre-emergence action, 320 g/ha, STEME; conditions: visual grading after ca. 3 weeks
Outline: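 Percent herbicidal effect, graded by eye about 3 weeks after treatment relative to untreated pots (0% matching controls, 100% dead plants). Application of 320 g/ha onto soil covering freshly sown seeds, as aqueous suspension or emulsion plus 0.5% additive at 600 L/ha; pots kept in greenhouse.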

[13] = tested on: Lolium rigidum (LOLRI); assay: Herbicidal pre-emergence action, 320 g/ha (Table C2); conditions: visual grading after ca. 3 weeks vs untreated controls
Outline: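 Herbicidal effect was graded by eye roughly 3 weeks after treatment, from 0% (as control) to 100% (dead plants). Weed seeds sown in sandy loam were covered and sprayed on the soil surface with WP/EC suspensions or emulsions, 0.5% additive, 600 L water/ha, then kept in a greenhouse.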

[14] = tested on: Setaria viridis (SETVI); assay: Herbicidal pre-emergence action, 1280 g/ha (Table A8); conditions: visual grading after ca. 3 weeks vs untreated controls
Description: as §5, with “plants). Tables A1 to A11 below, show the effects of selected compounds of the general formula (I) according to Table 1 on various harmful plants and an application rate corresponding to 1280 g/ha obtained by the experimental procedure mentioned above.” for “plants).”

[15] = tested on: Matricaria inodora (MATIN); assay: Herbicidal pre-emergence action, 1280 g/ha (Table A6); conditions: visual grading after ca. 3 weeks vs untreated controls
Outline: as §3

[16] = tested on: Lolium rigidum (LOLRI); assay: Herbicidal post-emergence action, 320 g/ha, LOLRI; conditions: visual grading after ca. 3 weeks
Description: as §2, with “plants).” for “plants). Tables B1 to B11 below, show the effects of selected compounds of the general formula (I) according to Table 1 on various harmful plants using an application rate corresponding to 1280 g/ha obtained by the experimental procedure mentioned above.”
Tables D1 to D8 below, show the effects of selected compounds of the general formula (I) according to Table 1 on various harmful plants using an application rate corresponding to 320 g/ha obtained by the experimental procedure mentioned above.

[17] = tested on: Kochia scoparia (KCHSC); assay: Herbicidal post-emergence action, 1280 g/ha (Table B4); conditions: visual assessment after ca. 3 weeks vs untreated controls
Outline: as §1

[18] = tested on: Abutilon theophrasti (ABUTH); assay: Herbicidal post-emergence action, 1280 g/ha (Table B1); conditions: visual assessment after ca. 3 weeks vs untreated controls
Outline: as §1

[19] = tested on: Veronica persica (VERPE); assay: Herbicidal post-emergence action, 320 g/ha, VERPE; conditions: visual grading after ca. 3 weeks
Outline: as §4

[20] = tested on: Poa annua (POAAN); assay: Herbicidal pre-emergence action, 1280 g/ha (Table A7); conditions: visual grading after ca. 3 weeks vs untreated controls
Description: as §5, with “plants). Tables A1 to A11 below, show the effects of selected compounds of the general formula (I) according to Table 1 on various harmful plants and an application rate corresponding to 1280 g/ha obtained by the experimental procedure mentioned above.” for “plants).”

[21] = tested on: Veronica persica (VERPE); assay: Herbicidal post-emergence action, 1280 g/ha, VERPE; conditions: visual grading vs untreated controls
Outline: as §6

[22] = tested on: Amaranthus retroflexus (AMARE); assay: Herbicidal post-emergence action, 320 g/ha, AMARE; conditions: visual grading after ca. 3 weeks
Outline: as §4

[23] = tested on: Kochia scoparia (KCHSC); assay: Herbicidal post-emergence action, 320 g/ha, KCHSC; conditions: visual grading after ca. 3 weeks
Outline: as §4

[24] = tested on: Matricaria inodora (MATIN); assay: Herbicidal post-emergence action, 320 g/ha, MATIN; conditions: visual grading after ca. 3 weeks
Outline: as §4

[25] = tested on: Abutilon theophrasti (ABUTH); assay: Herbicidal post-emergence action, 320 g/ha, ABUTH; conditions: visual grading after ca. 3 weeks
Outline: as §4

| SMILES | herbicidal effect LOLRI [1] | herbicidal effect STEME [3] | herbicidal effect LOLRI [4] | herbicidal effect MATIN [5] | herbicidal effect STEME [6] | herbicidal effect AMARE [7] | herbicidal effect AMARE [8] | herbicidal effect STEME [9] | herbicidal effect AMARE [10] | herbicidal effect ABUTH [11] | herbicidal effect STEME [12] | herbicidal effect LOLRI [13] | herbicidal effect SETVI [14] | herbicidal effect MATIN [15] | herbicidal effect KCHSC [17] | herbicidal effect ABUTH [18] | herbicidal effect POAAN [20] | herbicidal effect VERPE [21] | herbicidal effect AMARE [22] | herbicidal effect KCHSC [23] | other results |
| --- | --- | --- | --- | --- | --- | --- | --- | --- | --- | --- | --- | --- | --- | --- | --- | --- | --- | --- | --- | --- | --- |
| Cc1nn(C)c(=O)c(Oc2cc(Cl)ccc2Br)c1OC(=O)C(C)C [Example I-092] | 90% | 100% | 100% | 90% | 90% | 100% | 90% | 100% | 90% | 90% | 90% | 100% | 90% | 100% |  |  |  |  |  |  | herbicidal effect SETVI [2]: 90% |
| Cc1nn(C)c(=O)c(Oc2cc(Cl)ccc2Cl)c1OC(=O)C(C)C [Example I-095] | 90% | 90% | 100% | 90% | 90% | 100% | 90% | 100% | 90% |  | 90% | 90% |  | 90% |  |  |  |  |  |  | herbicidal effect LOLRI [16]: 90% |
| Cc1nn(C)c(=O)c(Oc2ccccc2Cl)c1O [Example I-003] | 90% | 100% | 100% | 100% | 90% | 90% | 90% | 100% | 100% |  |  |  |  |  | 100% | 90% | 90% | 100% | 90% | 90% | herbicidal effect VERPE [19]: 100% |
| Cc1nn(C)c(=O)c(Oc2ccccc2C2CC2)c1O [Example I-014] | 90% | 100% | 100% | 90% | 100% | 100% | 90% | 100% | 90% | 90% | 100% |  | 90% | 100% | 100% |  | 90% | 90% | 90% | 100% | herbicidal effect MATIN [24]: 90% |
| Cc1nn(C)c(=O)c(Oc2ccc(F)cc2C2CC2)c1O [Example I-033] |  | 90% | 100% | 90% |  | 90% | 90% | 90% | 100% |  |  | 100% |  |  | 90% | 90% |  | 90% | 90% |  | herbicidal effect ABUTH [25]: 90% |
